Source: US4450269A, “Mono-5-substituted-3-chloro-4H-1,2,6-thiadiazin-4-one antifungal agents” (FMC Corporation, priority 1980, dated 1984)

Assays:
Experiment in all cases: Spore germination test
Type in all cases: cell-based
Uromyces phaseoli = conditions: UP, 48 hours
Summary of the method: (§1)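 Compound was delivered in acetone into water agar at final 40, 10, 2.5 and 1 ppm. Alternaria solani and Botrytis cinerea spores were applied as sterile-water suspensions, while Erysiphe polygoni and Uromyces phaseoli spores were brushed on from infected leaves. After 48 h at 24° C., percentage germination was converted to a rating.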

Erysiphe polygoni = conditions: EP, 48 hours
Summary of the method: as §1

Alternaria solani = conditions: AS, 48 hours
Summary of the method: as §1

Row | Compound | Spore Germination Rating (Uromyces phaseoli; 1.0 ppm) | Spore Germination Rating (Uromyces phaseoli; 2.5 ppm) | Spore Germination Rating (Uromyces phaseoli; 10 ppm) | Spore Germination Rating (Uromyces phaseoli; 40 ppm) | Spore Germination Rating (Erysiphe polygoni; 1.0 ppm) | Spore Germination Rating (Erysiphe polygoni; 2.5 ppm) | Spore Germination Rating (Erysiphe polygoni; 10 ppm) | Spore Germination Rating (Erysiphe polygoni; 40 ppm) | Spore Germination Rating (Alternaria solani; 1.0 ppm) | Spore Germination Rating (Alternaria solani; 2.5 ppm) | Spore Germination Rating (Alternaria solani; 10 ppm) | Spore Germination Rating (Alternaria solani; 40 ppm)
1 | O=c1c(Cl)nsnc1Oc1cccc(Cl)c1 [Compound 13, 3-chloro-5-(3-chlorophenoxy)-4H--1,2,6-thiadiazin-4-one] | 0 (0-10) | 0 (0-10) | 0 (0-10) | 0 (0-10) | 4 (80-100) | 2 (40-60) | 0 (0-10) | 0 (0-10) | 2 (40-60) | 0 (0-10) | 0 (0-10) | 0 (0-10)
2 | O=c1c(Cl)nsnc1Oc1ccccc1Cl [Compound 14, 3-chloro-5-(2-chlorophenoxy)-4H--1,2,6-thiadiazin-4-one] | 0 (0-10) | 0 (0-10) | 0 (0-10) | 0 (0-10) | 4 (80-100) | 4 (80-100) | 2 (40-60) | 0 (0-10) | 3 (60-80) | 2 (40-60) | 0 (0-10) | 0 (0-10)
3 | O=c1c(Cl)nsnc1Oc1ccc(Br)cc1 [Compound 15, 3-chloro-5-(4-bromophenoxy)-4H--1,2,6-thiadiazin-4-one] | 1 (10-40) | 0 (0-10) | 0 (0-10) | 0 (0-10) | 4 (80-100) | 1 (10-40) | 0 (0-10) | 0 (0-10) | 4 (80-100) | 1 (10-40) | 0 (0-10) | 0 (0-10)
4 | O=c1c(Cl)nsnc1Oc1ccc(Cl)c(Cl)c1 [Compound 16, 3-chloro-5-(3,4-dichlorophenoxy)-4H--1,2,6-thiadiazin-4-one] | 1 (10-40) | 0 (0-10) | 0 (0-10) | 0 (0-10) | 4 (80-100) | 3 (60-80) | 1 (10-40) | 4 (80-100) | 1 (10-40) | 0 (0-10) | 0 (0-10) | 0 (0-10)
5 | O=c1c(Cl)nsnc1Oc1ccc(Cl)cc1Cl [Compound 17, 3-chloro-5-(2,4-dichlorophenoxy)-4H--1,2,6-thiadiazin-4-one] | 0 (0-10) | 0 (0-10) | 0 (0-10) | 0 (0-10) | 3 (60-80) | 1 (10-40) | 0 (0-10) | 0 (0-10) | 2 (40-60) | 1 (10-40) | 0 (0-10) | 0 (0-10)
6 | O=c1c(Cl)nsnc1Oc1c(Cl)cccc1Cl [Compound 18, 3-chloro-5-(2,6-dichlorophenoxy)-4H--1,2,6-thiadiazin-4-one] | 0 (0-10) | 0 (0-10) | 0 (0-10) | 0 (0-10) | 2 (40-60) | 1 (10-40) | 0 (0-10) | 0 (0-10) | 3 (60-80) | 2 (40-60) | 1 (10-40) | 0 (0-10)
7 | O=c1c(Cl)nsnc1Oc1cccc(Cl)c1Cl [Compound 19, 3-chloro-5-(2,3-dichlorophenoxy)-4H--1,2,6-thiadiazin-4-one] | 0 (0-10) | 0 (0-10) | 0 (0-10) | 0 (0-10) | 3 (60-80) | 1 (10-40) | 0 (0-10) | 0 (0-10) | 3 (60-80) | 3 (60-80) | 0 (0-10) | 0 (0-10)
8 | O=c1c(Cl)nsnc1Oc1cc(Cl)cc(Cl)c1 [Compound 20, 3-chloro-5-(3,5-dichlorophenoxy)-4H--1,2,6-thiadiazin-4-one] | 0 (0-10) | 0 (0-10) | 0 (0-10) | 0 (0-10) | 3 (60-80) | 0 (0-10) | 0 (0-10) | 0 (0-10) | 2 (40-60) | 0 (0-10) | 0 (0-10) | 0 (0-10)
9 | Cc1cccc(Oc2nsnc(Cl)c2=O)c1 [Compound 21, 3-chloro-5-(3-methylphenoxy)-4H--1,2,6-thiadiazin-4-one] | 4 (80-100) | 2 (40-60) | 0 (0-10) | 0 (0-10) | 4 (80-100) | 3 (60-80) | 2 (40-60) | 0 (0-10) | 3 (60-80) | 1 (10-40) | 0 (0-10) | 0 (0-10)
10 | Cc1ccccc1Oc1nsnc(Cl)c1=O [Compound 22, 3-chloro-5-(2-methylphenoxy)-4H--1,2,6-thiadiazin-4-one] | 4 (80-100) | 2 (40-60) | 1 (10-40) | 0 (0-10) | 4 (80-100) | 4 (80-100) | 3 (60-80) | 1 (10-40) | 3 (60-80) | 0 (0-10) | 0 (0-10) | 0 (0-10)
11 | Cc1ccc(Oc2nsnc(Cl)c2=O)c(C)c1 [Compound 23, 3-chloro-5-(2,4-dimethylphenoxy)-4H--1,2,6-thiadiazin-4-one] | 4 (80-100) | 4 (80-100) | 1 (10-40) | 0 (0-10) | 4 (80-100) | 4 (80-100) | 3 (60-80) | 1 (10-40) | 3 (60-80) | 3 (60-80) | 0 (0-10) | 0 (0-10)
12 | Cc1cccc(C)c1Oc1nsnc(Cl)c1=O [Compound 24, 3-chloro-5-(2,6-dimethylphenoxy)-4H--1,2,6-thiadiazin-4-one] | 1 (10-40) | 0 (0-10) | 0 (0-10) | 0 (0-10) | 3 (60-80) | 1 (10-40) | 0 (0-10) | 0 (0-10) | 1 (10-40) | 1 (10-40) | 0 (0-10) | 0 (0-10)
13 | Cc1cc(C)cc(Oc2nsnc(Cl)c2=O)c1 [Compound 25, 3-chloro-5-(3,5-dimethylphenoxy)-4H--1,2,6-thiadiazin-4-one] | 4 (80-100) | 2 (40-60) | 1 (10-40) | 0 (0-10) | 4 (80-100) | 4 (80-100) | 0 (0-10) | 0 (0-10) | 4 (80-100) | 2 (40-60) | 0 (0-10) | 0 (0-10)
14 | Nc1ccc(Oc2nsnc(Cl)c2=O)cc1 [Compound 26, 5-(4-aminophenoxy)-3-chloro-4H--1,2,6-thiadiazin-4-one] | 2 (40-60) | 3 (60-80) | 4 (80-100) | 2 (40-60) | 4 (80-100) | 4 (80-100) | 4 (80-100) | 4 (80-100) | 4 (80-100) | 3 (60-80) | 0 (0-10) | 0 (0-10)
15 | CNC(=O)Nc1ccc(Oc2nsnc(Cl)c2=O)cc1 [Compound 28, 3-chloro-5-[4-(3-methylureido)-phenoxy]-4H--1,2,6-thiadiazin-4-one] | 4 (80-100) | 2 (40-60) | 2 (40-60) | 2 (40-60) | 4 (80-100) | 4 (80-100) | 4 (80-100) | 4 (80-100) | 4 (80-100) | 4 (80-100) | 4 (80-100) | 4 (80-100)
16 | O=C(Nc1ccccc1)Nc1ccc(Oc2nsnc(Cl)c2=O)cc1 [Compound 29, 3-chloro-5-[4-(3-phenylureido)-phenoxy]-4H--1,2,6-thiadiazin-4-one] | 4 (80-100) | 2 (40-60) | 2 (40-60) | 0 (0-10) | 4 (80-100) | 4 (80-100) | 4 (80-100) | 1 (10-40) | 4 (80-100) | 4 (80-100) | 4 (80-100) | 4 (80-100)
17 | O=c1c(Cl)nsnc1Oc1c(Cl)cc(Cl)cc1Cl [Compound 30, 3-chloro-5-(2,4,6-trichlorophenoxy)-4H--1,2,6-thiadiazin-4-one] | 0 (0-10) | 0 (0-10) | 0 (0-10) | 0 (0-10) | 1 (10-40) | 0 (0-10) | 0 (0-10) | 0 (0-10) | 3 (60-80) | 0 (0-10) | 0 (0-10) | 0 (0-10)
18 | O=c1c(Cl)nsnc1Oc1c(Cl)c(Cl)c(Cl)c(Cl)c1Cl [Compound 31, 3-chloro-5-(pentachlorophenoxy)-4H--1,2,6-thiadiazine-4-one] | 0 (0-10) | 0 (0-10) | 0 (0-10) | 0 (0-10) | 0 (0-10) | 0 (0-10) | 1 (10-40) | 0 (0-10) | 4 (80-100) | 1 (10-40) | 0 (0-10) | 0 (0-10)
